Laboratory results taken from patent US20170073337A1, “DIHYDROTHIAZINE AND DIHYDROOXAZINE DERIVATIVES HAVING BACE1 INHIBITORY ACTIVITY” (Shionogi & Co., Ltd., priority 2014, published 2017).
Values after ≈ are worked out from the molar mass of the structure shown. Read-outs that look alike come from different tables or passages of the source.

Assays:
[1] = target: T1, CYP1A2 (Homo sapiens, UniProt P05177); assay: CYP inhibition test (CYP1A2); type: in vitro ADME; settings: pooled human liver microsomes; 7-ethoxyresorufin O-deethylation
T1 construct: The commercially available pooled human liver microsomes are used as an enzyme resource; from tissue; host or cells: pooled human liver microsomes
T1 sequence (P05177 1-516): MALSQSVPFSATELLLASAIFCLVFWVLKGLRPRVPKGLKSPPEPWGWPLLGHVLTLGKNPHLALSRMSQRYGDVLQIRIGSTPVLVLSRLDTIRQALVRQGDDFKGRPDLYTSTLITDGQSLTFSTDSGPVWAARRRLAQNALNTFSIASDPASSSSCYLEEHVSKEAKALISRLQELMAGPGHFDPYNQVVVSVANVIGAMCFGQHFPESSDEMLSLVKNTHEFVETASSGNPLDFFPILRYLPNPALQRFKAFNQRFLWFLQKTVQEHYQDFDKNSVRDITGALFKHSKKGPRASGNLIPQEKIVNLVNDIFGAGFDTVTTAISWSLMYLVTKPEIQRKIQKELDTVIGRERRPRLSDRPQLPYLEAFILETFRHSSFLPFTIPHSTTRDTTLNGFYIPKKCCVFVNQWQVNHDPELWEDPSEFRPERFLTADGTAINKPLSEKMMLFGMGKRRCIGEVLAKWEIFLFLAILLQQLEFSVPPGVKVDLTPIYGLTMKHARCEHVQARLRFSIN
Outline: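 Inhibition of CYP1A2 was measured in commercially available pooled human liver microsomes (0.2 mg protein/mL) using 7-ethoxyresorufin O-deethylation with 0.5 μmol/L ethoxyresorufin. Test compound at 1, 5, 10, 20 μmol/L in […] Hepes buffer was incubated at 37° C. after NADPH addition; methanol/acetonitrile=1/1 (v/v) stopped the reaction, and resorufin was read fluorescently.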

[2] = target: T2, CYP2C19 (Homo sapiens, UniProt P33261); assay: CYP inhibition test (CYP2C19); type: in vitro ADME; settings: pooled human liver microsomes; mephenytoin 4′-hydroxylation
T2 construct: The commercially available pooled human liver microsomes are used as an enzyme resource; from tissue; host or cells: pooled human liver microsomes
T2 sequence (P33261 whole entry): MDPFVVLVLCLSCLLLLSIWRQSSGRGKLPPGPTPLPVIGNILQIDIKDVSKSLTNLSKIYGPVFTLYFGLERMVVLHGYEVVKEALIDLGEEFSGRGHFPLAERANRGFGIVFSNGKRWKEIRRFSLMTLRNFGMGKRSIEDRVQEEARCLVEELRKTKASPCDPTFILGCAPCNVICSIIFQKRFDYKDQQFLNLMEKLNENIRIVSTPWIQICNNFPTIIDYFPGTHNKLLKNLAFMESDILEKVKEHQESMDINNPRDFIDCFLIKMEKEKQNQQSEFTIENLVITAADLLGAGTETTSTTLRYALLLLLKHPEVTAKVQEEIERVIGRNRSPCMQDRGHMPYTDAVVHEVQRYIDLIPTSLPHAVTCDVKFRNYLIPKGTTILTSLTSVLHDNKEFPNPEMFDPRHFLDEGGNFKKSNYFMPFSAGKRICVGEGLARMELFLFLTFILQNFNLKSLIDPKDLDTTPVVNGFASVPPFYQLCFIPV
Outline: (§1)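 Pooled human liver microsomes (0.2 mg protein/mL) were incubated at 37 °C with NADPH, compound at 1, 5, 10, 20 μmol/L and marker substrates: tolbutamide 100 μmol/L (2C9), S-mephenytoin 50 μmol/L (2C19), dextromethorphan 5 μmol/L (2D6), terfenadine 1 μmol/L (3A4). Metabolites were measured by LC/MS/MS; IC50 came from logistic fitting against DMSO control.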

[3] = target: T3, CYP3A4 (Homo sapiens, UniProt P08684); assay: CYP inhibition test (CYP3A4); type: in vitro ADME; settings: pooled human liver microsomes; terfenadine hydroxylation
T3 construct: The commercially available pooled human liver microsomes are used as an enzyme resource; from tissue; host or cells: pooled human liver microsomes
T3 sequence (P08684 whole entry): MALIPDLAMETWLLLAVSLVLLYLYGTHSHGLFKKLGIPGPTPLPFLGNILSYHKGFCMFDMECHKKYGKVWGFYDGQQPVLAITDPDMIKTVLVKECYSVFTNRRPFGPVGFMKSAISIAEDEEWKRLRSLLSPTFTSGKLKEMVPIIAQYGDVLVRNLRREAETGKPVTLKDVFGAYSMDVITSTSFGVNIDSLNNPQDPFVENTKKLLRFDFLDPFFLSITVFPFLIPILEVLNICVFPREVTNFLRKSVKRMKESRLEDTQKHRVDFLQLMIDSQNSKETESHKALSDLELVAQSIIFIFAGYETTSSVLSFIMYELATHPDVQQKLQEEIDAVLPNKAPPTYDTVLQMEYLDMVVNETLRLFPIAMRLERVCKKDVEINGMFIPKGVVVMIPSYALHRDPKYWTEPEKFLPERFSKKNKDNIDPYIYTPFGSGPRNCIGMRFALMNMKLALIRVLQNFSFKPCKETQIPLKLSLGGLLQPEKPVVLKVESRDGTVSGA
Outline: as §1

[4] = Solubility test; type: physicochemical
Outline: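 Dissolved concentration determined by LC/MS or SPE/MS (absolute calibration) in diluted filtrates, after 2 μL of 10 mmol/L DMSO stock was added to 198 μL JP 1st or JP 2nd fluid and equilibrated either 1 h with shaking at room temperature or 16 h standing at 25 °C.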

[5] = Metabolic stability test; type: in vitro ADME; settings: human liver microsomes, 37° C., 30 minutes, NADPH
Outline: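 Parent compound was measured by LC/MS/MS or SPE/MS after a methanol/acetonitrile quench and reported as % remaining, with the 0 min sample set to 100%. Incubations ran 30 min at 37 °C in pH 7.4 Tris buffer containing pooled human liver microsomes at 0.5 mg protein/mL and 1 mmol/L NADPH.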

[6] = target: T4, human ether-a-go-go related gene (hERG) channel (Homo sapiens, UniProt Q12809); assay: hERG test; type: cell-based; settings: % inhibition of IKr tail peak current at 3 uM; CHO cells expressing hERG
T4 construct: expressed in transfected cells; host or cells: CHO cells
T4 sequence (Q12809 whole entry): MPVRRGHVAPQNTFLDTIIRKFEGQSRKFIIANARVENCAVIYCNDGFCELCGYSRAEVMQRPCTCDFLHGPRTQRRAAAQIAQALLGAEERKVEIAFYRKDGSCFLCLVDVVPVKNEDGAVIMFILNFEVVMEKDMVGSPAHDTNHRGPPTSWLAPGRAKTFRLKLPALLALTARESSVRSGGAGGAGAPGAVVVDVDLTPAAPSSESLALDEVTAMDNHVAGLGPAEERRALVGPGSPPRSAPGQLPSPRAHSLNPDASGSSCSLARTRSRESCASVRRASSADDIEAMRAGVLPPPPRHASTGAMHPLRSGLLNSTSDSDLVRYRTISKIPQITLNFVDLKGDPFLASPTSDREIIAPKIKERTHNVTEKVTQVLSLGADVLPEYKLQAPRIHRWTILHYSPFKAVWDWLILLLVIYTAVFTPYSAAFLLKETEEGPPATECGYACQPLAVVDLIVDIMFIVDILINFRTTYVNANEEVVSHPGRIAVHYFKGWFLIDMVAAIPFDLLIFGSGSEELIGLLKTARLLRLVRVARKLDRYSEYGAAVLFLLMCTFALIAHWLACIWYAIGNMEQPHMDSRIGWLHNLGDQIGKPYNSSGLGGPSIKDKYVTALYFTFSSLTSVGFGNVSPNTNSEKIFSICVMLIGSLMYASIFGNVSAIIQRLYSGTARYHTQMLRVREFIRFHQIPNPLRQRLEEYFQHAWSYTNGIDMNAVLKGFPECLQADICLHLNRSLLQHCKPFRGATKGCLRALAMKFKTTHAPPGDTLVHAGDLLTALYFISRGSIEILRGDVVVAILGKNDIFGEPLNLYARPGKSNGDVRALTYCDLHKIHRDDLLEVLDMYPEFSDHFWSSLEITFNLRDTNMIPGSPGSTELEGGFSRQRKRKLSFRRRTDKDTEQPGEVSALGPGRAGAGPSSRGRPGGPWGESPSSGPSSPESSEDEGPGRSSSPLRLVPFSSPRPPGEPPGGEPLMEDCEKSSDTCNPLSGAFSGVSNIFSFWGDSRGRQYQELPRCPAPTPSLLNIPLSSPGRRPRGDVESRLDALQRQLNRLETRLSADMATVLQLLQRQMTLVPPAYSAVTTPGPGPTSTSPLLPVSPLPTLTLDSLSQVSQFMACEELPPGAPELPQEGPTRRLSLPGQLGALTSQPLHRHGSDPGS
Outline: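 Automated whole-cell patch clamp was run on CHO cells carrying human hERG, held at −80 mV. Current was recorded during the −50 mV repolarization (2 s) that followed a 2 s +20 mV step, after a −50 mV leak pulse.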

[7] = JP 1st fluid, 25 °C, pH 1.2, simulated gastric fluid, kinetic from dmso stock, read-out: JP1
[8] = JP 2nd fluid A, 25 °C, pH 6.8, aqueous buffer, kinetic from dmso stock, read-out: JP2_μM
[9] = JP 1st fluid, pH 1.2, simulated gastric fluid, kinetic from dmso stock, read-out: JP1
[10] = JP 2nd fluid A, pH 6.8, aqueous buffer, kinetic from dmso stock, read-out: JP2_μM
[11] = solubility in JP 2nd fluid B, 1% DMSO, *2: shaken for 1 hour at room temperature, read-out: JP2_μM
[12] = JP 2nd fluid B, pH 6.8, aqueous buffer, kinetic from dmso stock, read-out: JP2_μM

SMILES | IC50 [1] [µM] | IC50 [2] [µM] | IC50 [3] [µM] | solubility kinetic at 16 h [4, 7] [µM] | solubility kinetic at 16 h [4, 8] [µM] | remaining % [5] [%] | solubility kinetic at 1 h [4, 9] [µM] | solubility kinetic at 1 h [4, 10] [µM] | solubility kinetic at 16 h [4, 11] [µM] | solubility kinetic at 1 h [4, 12] [µM] | hERG_3 uM_% [6] [%]
C[C@H]1SC(N)=N[C@](C)(c2cc(NC(=O)c3coc(CF)n3)ccc2F)[C@H]1F [Compound I-49] | ≥ 20 | ≥ 20 | ≥ 20 |  |  | 95.4 | > 50 | > 50 |  |  | 27.2
C[C@H]1SC(N)=N[C@](C)(c2cc(NC(=O)c3ccc(OCF)cn3)ccc2F)[C@H]1F [Compound I-51] | ≥ 20 | ≥ 20 | ≥ 10 |  |  | 76.5 | > 50 |  | >50 |  | 39.4
Cc1cc(C#N)cnc1C(=O)Nc1ccc(F)c([C@@]2(C)N=C(N)S[C@H](C)[C@@H]2F)c1 [Compound I-52] | ≥ 20 | ≥ 20 | ≥ 20 |  |  | 60.3 | > 50 |  |  | 13.9 (≈ 5.78 µg/mL) | 55.7
C[C@H]1SC(N)=N[C@](C)(c2cc(NC(=O)c3ncc(OCC(F)(F)F)cn3)ccc2F)[C@H]1F [Compound I-53] | ≥ 20 | ≥ 20 | ≥ 20 |  |  | 109 | > 50 |  | >50 |  | 47.9
CC[C@H]1SC(N)=N[C@](C)(c2cc(NC(=O)c3cnc(OCF)cn3)ccc2F)[C@H]1F [Compound I-66] | ≥ 20 | ≥ 20 | ≥ 10 |  |  | 67 | > 50 |  | >50 |  | 27.1
CC[C@H]1SC(N)=N[C@](C)(c2cc(NC(=O)c3ccc(F)cn3)ccc2F)[C@H]1F [Compound I-70] | ≥ 20 | ≥ 20 | ≥ 10 |  |  | 74.3 | > 50 |  | >50 |  | 58.6
COc1cnc(C(=O)Nc2ccc(F)c([C@@]3(C)N=C(N)O[C@H]([C@@H](C)F)[C@@H]3F)c2)cn1 [Compound I-71] | ≥ 20 | ≥ 20 | ≥ 20 |  |  | 63 | > 50 | > 50 |  |  | 17
C[C@]1(c2cc(NC(=O)c3ccc(C#N)cn3)ccc2F)N=C(N)O[C@H](C(F)(F)C2CC2)[C@@H]1F [Compound I-81] | ≥ 20 | ≥ 20 | ≥ 10 |  |  | 101 | > 50 |  |  | 19.3 (≈ 8.91 µg/mL) | 49.3
COc1cnc(C(=O)Nc2ccc(F)c([C@@]3(C)N=C(N)O[C@H](C(F)F)[C@@H]3C)c2)cn1 [Compound I-86] | ≥ 20 | ≥ 20 | ≥ 20 |  |  | 67.5 | > 50 | > 50 |  |  | 23.8
CO[C@H]1[C@@H](C)SC(N)=N[C@]1(C)c1cc(NC(=O)c2cnc(OCF)cn2)ccc1F [Compound I-87] | ≥ 20 | ≥ 20 | ≥ 20 |  |  | 81 | > 50 |  | >50 |  | 13.8
CO[C@H]1[C@@H](C)SC(N)=N[C@]1(C)c1cc(NC(=O)c2ccc(C#N)cn2)ccc1F [Compound I-88] | ≥ 20 | ≥ 20 | ≥ 20 |  |  | 83.5 | > 50 |  | >50 |  | 45.6
CO[C@H]1[C@@H](C)SC(N)=N[C@]1(C)c1cc(NC(=O)c2ccc(F)cn2)ccc1F [Compound I-89] | ≥ 20 | ≥ 20 | ≥ 20 |  |  | 86.7 | > 50 |  | >50 |  | 42.7
COc1cnc(C(=O)Nc2ccc(F)c([C@@]3(C)N=C(N)S[C@H](C)[C@@H]3OC)c2)cn1 [Compound I-90] | ≥ 20 | ≥ 20 | ≥ 20 |  |  | 83.1 | > 50 |  | >50 |  | 11.4
COC[C@H]1SC(N)=N[C@](C)(c2cc(NC(=O)c3cnc(OCF)cn3)ccc2F)[C@H]1F [Compound I-91] | ≥ 20 | ≥ 20 | ≥ 20 |  |  | 74.4 | > 50 |  | >50 |  | 11.3
COc1ccc(C(=O)Nc2ccc(F)c([C@@]3(C)N=C(N)S[C@H](C)[C@@H]3F)c2)nn1 [Compound I-108] | ≥ 20 | ≥ 20 | ≥ 20 |  |  | 92.1 | > 50 |  | >50 |  | 39.5

Second part, led by results:

IC50 [1] [µM] | IC50 [2] [µM] | IC50 [3] [µM] | solubility kinetic at 16 h [4, 7] [µM] | solubility kinetic at 16 h [4, 8] [µM] | remaining % [5] [%] | solubility kinetic at 1 h [4, 9] [µM] | solubility kinetic at 1 h [4, 10] [µM] | solubility kinetic at 16 h [4, 11] [µM] | solubility kinetic at 1 h [4, 12] [µM] | SMILES | hERG_3 uM_% [6] [%]
≥ 20 | ≥ 20 | ≥ 20 | > 50 | > 50 | 94.6 |  |  |  |  | Cc1nc(C(=O)Nc2ccc(F)c([C@@]3(C)N=C(N)O[C@H](C(F)(F)F)[C@@H]3C)c2)co1 [Compound I-32] | 15.2
≥ 20 | ≥ 20 | ≥ 20 |  |  | 87.5 | 39.4 (≈ 17.4 µg/mL) | > 50 |  |  | C[C@H]1[C@@H](C(F)F)OC(N)=N[C@]1(C)c1cc(NC(=O)c2cnc(OCF)cn2)ccc1F [Compound I-33] | 21.9
≥ 20 | ≥ 20 | ≥ 20 |  |  | 106 | > 50 | > 50 |  |  | CC(F)(F)[C@H]1OC(N)=N[C@](C)(c2cc(NC(=O)c3ccc(C#N)cn3)ccc2F)[C@H]1F [Compound I-40] | 48.4
≥ 20 | ≥ 20 | ≥ 20 |  |  | 68.2 | > 50 | > 50 |  |  | COc1cnc(C(=O)Nc2ccc(F)c([C@@]3(C)N=C(N)O[C@H](C(C)(F)F)[C@@H]3F)c2)cn1 [Compound I-42] | 15.5
≥ 20 | ≥ 20 | ≥ 20 | 34 (≈ 15.4 µg/mL) | > 50 | 86.4 |  |  |  |  | C[C@]1(c2cc(NC(=O)c3cnc(OCF)cn3)ccc2F)N=C(N)OCC12CC(F)(F)C2 [Compound I-44] | 28.9
≥ 20 | ≥ 20 | ≥ 20 | 35.8 (≈ 15.1 µg/mL) | > 50 | 93.5 |  |  |  |  | C[C@]1(c2cc(NC(=O)c3ccc(F)cn3)ccc2F)N=C(N)OCC12CC(F)(F)C2 [Compound I-45] | 51.6
≥ 20 | ≥ 20 | ≥ 20 |  |  | 96.9 | > 50 | 30.5 (≈ 13.5 µg/mL) |  |  | C[C@H]1SC(N)=N[C@](C)(c2cc(NC(=O)c3cnc(OC(F)F)cn3)ccc2F)[C@H]1F [Compound I-47] | 40.4
